Data: US20130296311A1, “INHIBITORS OF HCV NS5A” (PRESIDIO PHARMACEUTICALS, INC., priority 2010, published 2013)
Read-outs that look alike come from different tables or passages of the source.

Test system: HCV 1b_Huh-Luc/Neo-ET cell line persistently expressing a bicistronic genotype 1b replicon in Huh 7 cells
Experiment: HCV replicon assay (luciferase readout, 72 h)
Type: cell-based, HCV genotype 1b
Conditions: Hepatitis C virus
Procedure, shortened: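 Huh 7 cells carrying a bicistronic genotype 1b luciferase/neo replicon received compound in triplicate the day after plating. After 72 h, replicon levels were read as Bright-Glo luciferase activity, expressed as % of control; EC50 was fitted with a four-parameter logistic and determined several times.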

[1] = Huh-7, 72 h, read-out: Inhibition of HCV genotype 1b
[2] = Huh-7, read-out: Inhibition of HCV genotype 1b

Structure (SMILES)	EC50 [1]	EC50 [2]
COC(=O)N[C@H](C(=O)N1CCC[C@H]1c1ncc(-c2ccc(C#Cc3ccc(-c4cnc([C@@H]5CCCN5C(=O)[C@H](NC(=O)OC)c5ccccc5)[nH]4)cc3)cc2)[nH]1)C(C)C [Compound 1002]	< 1 nM	–
COC(=O)N[C@@H](C(=O)N1CCC[C@H]1c1ncc(-c2ccc(C#Cc3ccc(C(=O)NC[C@@H]4CCCN4C(=O)[C@H](NC(=O)N4CCN(C)CC4)c4ccccc4)cc3)cc2)[nH]1)c1ccccc1 [Compound 236]	< 1 nM	–
COC(=O)N[C@@H](C(=O)N1CCC[C@H]1c1ncc(-c2ccc(C#Cc3ccc(-c4cnc([C@@H]5CCCN5C(=O)[C@H](NC(=O)[C@@H]5CCCN5)c5ccccc5)[nH]4)cc3)cc2)[nH]1)c1ccccc1 [Compound 206]	< 1 nM	–
COC(=O)N[C@H](C(=O)N1CCC[C@H]1c1ncc(-c2ccc(C#Cc3ccc4nc([C@@H]5CCCN5C(=O)[C@@H](NC(=O)OC)[C@@H](C)OC)[nH]c4c3)cc2)[nH]1)[C@@H](C)OC [Compound 862]	< 1 nM	–
CCN(CC)[C@@H](C(=O)N1CCC[C@H]1c1ncc(-c2ccc(C#Cc3ccc(-c4cnc([C@@H]5CCCN5C(=O)[C@@H](c5ccccc5)N(CC)CC)[nH]4)cc3)cc2)[nH]1)c1ccccc1 [Compound 173]	< 1 nM	–
COC(=O)N[C@@H](C(=O)N1CCC[C@H]1C(=O)Nc1ccc(C#Cc2ccc(-c3cnc([C@@H]4CCCN4C(=O)[C@H](NC(=O)OC)c4ccccc4)[nH]3)cc2)cc1)c1ccccc1 [Compound 171]	< 1 nM	–
CC(C)(NC(=O)C1CC1)C(=O)N1CCC[C@H]1c1ncc(C#Cc2ccc(-c3cnc([C@@H]4CCCN4C(=O)C(C)(C)NC(=O)C4CC4)[nH]3)cc2)[nH]1 [Compound 108]	> 1000 nM	–
COC(=O)N[C@@H](CC(C)C)C(=O)N1CCC[C@H]1c1ncc(-c2ccc(C#Cc3ccc4nc([C@@H]5CCCN5C(=O)[C@H](CC(C)C)NC(=O)OC)[nH]c4c3)cc2)[nH]1 [Compound 1067]	< 1 nM	–
COC(=O)N[C@H](C(=O)N1CCC[C@H]1c1nc(C(F)(F)F)c(C#Cc2ccc3cc(-c4cnc([C@@H]5CCCN5C(=O)[C@@H](NC(=O)OC)[C@@H](C)OC)[nH]4)ccc3c2)[nH]1)C(C)C [Compound 1261]	–	< 1 nM
COC(=O)N[C@@H](C(=O)N1CCC[C@H]1c1ncc(-c2ccc(C#Cc3ccc(-c4cnc([C@@H]5CCCN5C(=O)[C@H](NC(=O)N5CC[C@@H](OC)C5)c5ccccc5)[nH]4)cc3)cc2)[nH]1)c1ccccc1 [Compound 271]	< 1 nM	–
COC(=O)N[C@@H](C(=O)N1CCC[C@H]1c1ncc(-c2ccc(C#Cc3ccc(-c4cnc([C@@H]5CCCN5C(=O)[C@H](NC(=O)OC)c5ccccc5)[nH]4)cc3)cc2)[nH]1)c1ccccc1 [Compound 156]	< 1 nM	–
CC[C@H](C)[C@H](NC(=O)OC)C(=O)N1CCC[C@H]1c1ncc(-c2ccc3cc(C#Cc4[nH]c([C@@H]5CCCN5C(=O)[C@@H](NC(=O)OC)[C@@H](C)CC)nc4C(F)(F)F)ccc3c2)[nH]1 [Compound 1253]	–	< 1 nM
O=C(N[C@@H](C(=O)N1CCC[C@H]1c1ncc(C#Cc2ccc(C#Cc3cnc([C@@H]4CCCN4C(=O)[C@H](NC(=O)C4CC4)c4ccccc4)[nH]3)cc2)[nH]1)c1ccccc1)C1CC1 [Compound 303]	< 1 nM	–
COC(=O)N[C@@H](C(=O)N1CCC[C@H]1c1ncc(C#Cc2ccc(-c3ccc(-c4cnc([C@@H]5CCCN5C(=O)[C@@H](c5ccccc5)N5CCCCC5)[nH]4)cc3)cc2)[nH]1)c1ccccc1 [Compound 752]	< 1 nM	–
COC(=O)N[C@H](C(=O)N1CCN(C(=O)OC)C[C@H]1c1ncc(-c2ccc(C#Cc3ccc4nc([C@@H]5CCCN5C(=O)[C@H](NC(=O)OC)c5ccccc5)[nH]c4c3)cc2)[nH]1)C(C)C [Compound 1230]	–	< 1 nM
CC(C)(C)OC(=O)N[C@@H](C(=O)N1CCC[C@H]1c1ncc(C#Cc2ccc(-c3ccc(-c4cnc([C@@H]5CCCN5C(=O)[C@H](NC(=O)OC(C)(C)C)c5ccccc5)[nH]4)cc3)cc2)[nH]1)c1ccccc1 [Compound 757]	< 1 nM	–
COC(=O)N[C@H](C(=O)N1CCC[C@H]1c1nc2ccc(-c3ccc(C#Cc4cnc([C@@H]5CCCN5C(=O)[C@H](NC(=O)OC)c5ccccc5)[nH]4)cc3)cc2[nH]1)C(C)C [Compound 1085]	< 1 nM	–
CC[C@H](C)[C@H](NC(=O)OC)C(=O)N1CCC[C@H]1c1nc(C(F)(F)F)c(C#Cc2ccc3cc(-c4cnc([C@@H]5CCCN5C(=O)[C@@H](NC(=O)OC)[C@@H](C)OC)[nH]4)ccc3c2)[nH]1 [Compound 1262]	–	< 1 nM
COC(=O)N[C@@H](C(=O)N1CCC[C@H]1c1ncc(-c2ccc(C#Cc3ccc(-c4cnc([C@@H]5CCCN5C(=O)C5(c6ccccc6)CC5)[nH]4)cc3)cc2)[nH]1)c1ccccc1 [Compound 257]	< 1 nM	–
COC(=O)N[C@H](C(=O)N1CCC[C@H]1c1ncc(-c2ccc(C#Cc3ccc4nc([C@@H]5CCCN5C(=O)[C@@H](NC(=O)OC)C5CCCC5)[nH]c4c3)cc2)[nH]1)C1CCCC1 [Compound 1025]	< 1 nM	–
COC(=O)N[C@@H](C(=O)N1CCC[C@H]1c1ncc(-c2ccc(C#Cc3ccc(-c4cnc([C@@H]5CCCN5C(=O)[C@H]5CCCN5C)[nH]4)cc3)cc2)[nH]1)c1ccccc1 [Compound 187]	< 1 nM	–

Structure (SMILES)	EC50 [1]	EC50 [2]
COC(=O)N[C@H](CC(=O)N1CCC[C@H]1c1ncc(-c2ccc(C#Cc3ccc4nc([C@@H]5CCCN5C(=O)C[C@@H](NC(=O)OC)C(C)C)[nH]c4c3)cc2)[nH]1)C(C)C [Compound 1065]	10 to 999 nM	–
COC(=O)N[C@@H](C(=O)N1CCC[C@H]1c1ncc(-c2ccc(C#Cc3ccc(-c4cnc([C@@H]5CCCN5C(=O)[C@H](NC(=O)C5CCCN5C)c5ccccc5)[nH]4)cc3)cc2)[nH]1)c1ccccc1 (some centres unmarked) [Compound 203]	< 1 nM	–
O=C(N[C@@H](C(=O)N1CCC[C@H]1c1ncc(C#Cc2ccc(-c3ccc(-c4cnc([C@@H]5CCCN5C(=O)[C@H](NC(=O)N5CC[C@H](O)C5)c5ccccc5)[nH]4)cc3)cc2)[nH]1)c1ccccc1)N1CC[C@H](O)C1 [Compound 762]	< 1 nM	–
COC(=O)N[C@H](C(=O)N1CCC[C@H]1c1nc(-c2ccc3cc(C#Cc4[nH]c([C@@H]5CCCN5C(=O)[C@@H](NC(=O)OC)C(C)C)nc4C(F)(F)F)ccc3c2)c[nH]1)C(C)C [Compound 1082]	< 1 nM	–
COC(=O)N[C@H](C(=O)N[C@@H](C)c1ncc(-c2ccc(C#Cc3ccc(-c4cnc([C@@H]5CCCN5C(=O)[C@@H](NC(=O)OC)[C@@H](C)O)[nH]4)cc3)cc2)[nH]1)[C@@H](C)O [Compound 291]	< 1 nM	–
CC(C)[C@@H](NC(=O)C1CC1)C(=O)N1CCC[C@H]1C(=O)NCCc1ccc(C#Cc2cnc([C@@H]3CCCN3C(=O)[C@H](NC(=O)C3CC3)C(C)C)[nH]2)cc1 [Compound 127]	10 to 999 nM	–
CC(C)[C@H](NC(=O)OC(C)(C)C)C(=O)N1CCC[C@H]1c1ncc(-c2ccc(C#Cc3ccc(-c4cnc([C@@H]5CCCN5C(=O)[C@@H](NC(=O)OC(C)(C)C)C(C)C)[nH]4)cc3)cc2)[nH]1 [Compound 165]	10 to 999 nM	–
COC(=O)N[C@H](C(=O)N1CCC[C@H]1c1nc(-c2ccc3cc(C#Cc4[nH]c([C@@H]5CCCN5C(=O)[C@@H](NC(=O)OC)C(C)C)nc4C)ccc3c2)c[nH]1)C(C)C [Compound 1081]	< 1 nM	–
COC(=O)N[C@H](C(=O)N1CCC[C@H]1c1ncc(-c2ccc(C#Cc3ccc4nc([C@@H]5CCCN5C(=O)[C@@H](NC(=O)OC)C(C)(C)C)[nH]c4c3)cc2)[nH]1)C(C)(C)C [Compound 1041]	< 1 nM	–
CC[C@H](NC(=O)OC)C(=O)N1CCC[C@H]1c1ncc(-c2ccc(C#Cc3ccc(-c4cnc([C@@H]5CCCN5C(=O)[C@H](CC)NC(=O)OC)[nH]4)cc3)cc2)[nH]1 [Compound 960]	< 1 nM	–
CC(C)(C)OC(=O)N1CCCC1c1ncc(-c2ccc(C#Cc3ccc4nc([C@@H]5CCCN5C(=O)OC(C)(C)C)[nH]c4c3)cc2)[nH]1 (some centres unmarked) [Compound 1034]	1 to 9.9 nM	–
O=C(N[C@@H](C(=O)N1CCC[C@H]1C(=O)NCc1ccc(C#Cc2ccc(-c3cnc([C@@H]4CCCN4C(=O)[C@H](NC(=O)C4CC4)c4ccccc4)[nH]3)cc2)cc1)c1ccccc1)C1CC1 [Compound 190]	< 1 nM	–
CC(C)[C@@H](C(=O)N1CCC[C@H]1c1ncc(-c2ccc(C#Cc3ccc(-c4cnc([C@@H]5CCCN5C(=O)[C@H](C(C)C)N5CCOC5=O)[nH]4)cc3)cc2)[nH]1)N1CCOC1=O [Compound 1006]	10 to 999 nM	–
COC(=O)N[C@H](C(=O)N1CCC[C@H]1c1ncc(-c2ccc(C#Cc3ccc(-c4cnc([C@@H]5CCCN5C(=O)[C@@H](c5ccccc5)N5CCCCC5)[nH]4)cc3)cc2)[nH]1)C(C)C [Compound 986]	< 1 nM	–
COC(=O)N[C@H](C(=O)N[C@H](c1ncc(-c2ccc(C#Cc3ccc(-c4cnc([C@@H]5CCCN5C(=O)[C@@H](NC(=O)OC)C(C)C)[nH]4)cc3)cc2)[nH]1)C(C)C)C(C)C [Compound 276]	1 to 9.9 nM	–
CN(C)C(=O)N[C@@H](C(=O)N1CCC[C@H]1c1cc(-c2ccc(C#Cc3ccc(-c4cnc([C@@H]5CCCN5C(=O)[C@H](NC(=O)N(C)C)c5ccccc5)[nH]4)cc3)cc2)n[nH]1)c1ccccc1 [Compound 221]	< 1 nM	–
COC(=O)N[C@H](C(=O)N1CCC[C@H]1c1nc(-c2cnc3cc(C#Cc4ccc(-c5cnc([C@@H]6CCCN6C(=O)[C@@H](NC(=O)OC)C(C)C)[nH]5)cc4)ccc3c2)c[nH]1)C(C)C [Compound 1088]	1 to 9.9 nM	–
COC(=O)N[C@H](C(=O)N1CCC[C@H]1c1ncc(-c2ccc3cc(C#Cc4[nH]c([C@@H]5CCCN5C(=O)[C@@H](NC(=O)OC)C(C)C)nc4C4CC4)ccc3c2)[nH]1)C(C)C [Compound 1300]	–	< 1 nM
COC(=O)N[C@H](C(=O)N1CCC[C@H]1c1ncc(C#Cc2ccc(-c3ccc4nc([C@@H]5CCCN5C(=O)[C@@H](NC(=O)OC)C(C)C)[nH]c4c3)nc2)[nH]1)C(C)C [Compound 1086]	< 1 nM	–
CC(=O)N[C@@H](C(=O)N1CCC[C@H]1c1ncc(C#Cc2ccc(-c3cnc([C@@H]4CCCN4C(=O)[C@H](NC(C)=O)c4ccccc4)[nH]3)cc2)[nH]1)c1ccccc1 [Compound 109]	< 1 nM	–
